Measurements as given in PMC5750217 (Nature Communications, 2018).

Experiments:
wild-type GltPh = molecular target: T1, wild-type GltPh (Pyrococcus horikoshii, UniProt O59010); test: Proteoliposome transport assay, wild-type GltPh; type: biochemical; details: for Transport of radiolabelled substrate into proteoliposomes (in words): 1 µM L-[3H]substrate, Na+ gradient, pH 7.5
T1 construct: hexa-His (N, cleaved yes); made in house; host or cells: Escherichia coli Top10 (pBAD)
T1 sequence (O59010 1-425): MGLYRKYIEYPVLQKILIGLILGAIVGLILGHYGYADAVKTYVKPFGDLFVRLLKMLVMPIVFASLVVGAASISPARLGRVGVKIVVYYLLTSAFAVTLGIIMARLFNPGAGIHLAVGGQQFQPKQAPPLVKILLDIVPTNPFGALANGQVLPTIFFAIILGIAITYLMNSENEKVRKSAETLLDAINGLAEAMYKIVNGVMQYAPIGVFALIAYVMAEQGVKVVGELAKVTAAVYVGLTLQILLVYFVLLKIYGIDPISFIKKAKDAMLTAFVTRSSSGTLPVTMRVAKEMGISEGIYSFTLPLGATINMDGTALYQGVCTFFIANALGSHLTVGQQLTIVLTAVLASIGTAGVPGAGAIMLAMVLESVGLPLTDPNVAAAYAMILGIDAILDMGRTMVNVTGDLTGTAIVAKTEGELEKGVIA
Protocol: Mutant and wild-type GltPh with an amino-terminal hexa-His tag were expressed in Escherichia coli Top10 cells (Invitrogen), which were grown in Luria broth medium at 37 °C. Ampicillin was added to a final concentration of 100 μg per ml. To induce expression of GltPh, 0.1% L-arabinose was added when cells reached an optical density of 0.6 at 660 nm, and cells were harvested 4 h post induction. Membranes were isolated, and then solubilised with n-dodecyl-β-D-maltopyranoside (C12M, Anatrace). Histidine containing proteins were purified using Ni^2+−nitrilotriacetic acid resin (Qiagen). The histidine tag was subsequently removed from GltPh by digestion with thrombin (10 U per mg protein) and the protein further purified on a Superdex 200 size exclusion column, where the detergent was exchanged to n-decyl-β-D-maltopyranoside (C10M, Anatrace).
Pure protein was reconstituted into liposomes composed of 75% E. coli Polar Lipid Extract and 25% 1-palmitoyl-2-oleoyl-sn-glycero-3 ^−phopshocholine (Avanti Polar Lipids). Lipids were mixed, dried under nitrogen and resuspended in internal buffer (100 mM KCl, 20 mM HEPES-Tris pH 7.5) using brief sonication (Laboratory Supplies Co.). The lipid suspension was frozen in liquid nitrogen and thawed at room temperature several times. Liposomes were formed by extrusion through 400 nm polycarbonate membranes (Avanti Polar Lipids) and were treated with Triton X-100 at a 0.5:1 (w/w) detergent to lipid ratio prior to the addition of protein at 0.25 μg protein per mg lipid. The protein/lipid mixture was left at room temperature for 30 min before detergent was removed using SM2 Biobeads (BioRad). The mixture was then incubated with gentle agitation, with four consecutive batches of Biobeads (80 mg per ml). Proteoliposomes were concentrated by centrifugation at 150,000 g for 30 min, resuspended at 100 mg lipid per ml and either used immediately or flash-frozen in liquid nitrogen and stored at −80 °C.
Mutant and wild-type GltPh-mediated transport of radiolabelled substrate was assayed by diluting proteoliposomes (100 mg lipid per ml) 133-fold into uptake buffer (100 mM NaCl, 20 mM HEPES-Tris pH 7.5, 1 μM valinomycin, 100 nM–1 µM L-[^3H]substrate) pre-warmed to 30 °C. At each time point, a 200 µl aliquot was removed and diluted 10-fold into ice-cold quench buffer (100 mM LiCl, 20 mM HEPES-Tris pH 7.5), followed by immediate filtration over nitrocellulose filters (0.22 μm pore size, Millipore). The filters were washed with ice-cold quench buffer and assayed for radioactivity using a Trilux beta counter (PerkinElmer). To establish substrate concentration–response curves, extraliposomal L-[^3H]substrate was varied between 500 nM and 100 µM, maintaining NaCl concentrations at 300 mM. For inhibitor concentration–response curves, for wild-type GltPh 100 nM L-[^3H]aspartate, and for mutant GltPh 1 µM L-[^3H]serine, was co-applied with varying inhibitor concentrations. Background levels of uptake were measured by diluting proteoliposomes into internal buffer (100 mM KCl, 20 mM HEPES-Tris pH 7.5) containing 1 µM of valinomycin and the indicated concentrations of L-[^3H]substrate.

ASCT1 = molecular target: T2, ASCT1 (Homo sapiens, UniProt P43007); test: Radiolabelled uptake in oocytes expressing ASCT1; type: cell-based; details: 10 µM radiolabelled substrate, 10 min, room temperature
T2 construct: expressed in transfected cells; host or cells: Xenopus laevis oocytes (cRNA injection)
T2 sequence (P43007 1-532): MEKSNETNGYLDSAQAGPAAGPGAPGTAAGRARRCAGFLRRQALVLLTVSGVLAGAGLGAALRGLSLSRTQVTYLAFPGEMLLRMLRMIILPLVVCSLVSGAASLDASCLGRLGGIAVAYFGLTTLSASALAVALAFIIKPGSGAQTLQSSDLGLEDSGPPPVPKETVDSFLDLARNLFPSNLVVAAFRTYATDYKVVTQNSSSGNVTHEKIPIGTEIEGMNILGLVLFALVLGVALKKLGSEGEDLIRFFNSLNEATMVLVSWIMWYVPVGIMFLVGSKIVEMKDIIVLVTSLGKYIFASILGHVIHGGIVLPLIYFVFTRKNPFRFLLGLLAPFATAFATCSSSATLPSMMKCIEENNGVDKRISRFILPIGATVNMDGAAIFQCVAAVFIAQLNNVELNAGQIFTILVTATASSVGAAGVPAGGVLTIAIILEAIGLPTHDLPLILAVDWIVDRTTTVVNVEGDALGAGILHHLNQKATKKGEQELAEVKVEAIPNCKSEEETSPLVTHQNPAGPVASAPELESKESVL
Protocol: Uptake of L-[^3H]amino acids (PerkinElmer Life Sciences) was measured in oocytes expressing wild-type and mutant ASCT1, and uninjected oocytes. Five oocytes were incubated in Cl^−-containing buffer with 10 µM L-[^3H]amino acids at room temperature. After 10 min, uptake was terminated by three rapid washes in ice-cold Cl^−-containing buffer followed by lysis in 50 mM NaOH and 1% SDS. L-[^3H]amino acids were measured by scintillation counting using a Trilux beta counter (PerkinElmer Life Sciences).
Supplementary Figure 6. GltPh‐R397C, ASCT1 and ASCT2 are functional cysteine transporters. (a) […]
7.5) containing 1 µM of valinomycin and the 10µM 35S‐cysteine. […]
All data represent the mean of triplicate
(1 picture or pasted object on this page, not shown here)

Structure (SMILES) | IC50 for inhibition of L-[3H]aspartate transport (wild-type GltPh; 100 nM L-[3H]aspartate) | Radiolabelled substrate uptake into oocytes (in words) (ASCT1) | Transport of radiolabelled substrate into proteoliposomes (in words) (wild-type GltPh)
N[C@@H](CCC(=O)Nc1ccc([N+](=O)[O-])cc1)C(=O)O [GPNA, glutamyl-p-nitroanilide] | ineffective | – | –
N[C@@H](CS)C(=O)O [L-cysteine] | – | robust L-[^35S]cysteine uptake | –
NC(=O)CC[C@H](N)C(=O)O [L-glutamine] | – | no glutamine transport is observed | not transported
N[C@@H](CO)C(=O)O [L-serine] | – | observe L-[^3H]serine uptake | not transported
